Key:
DLD-1 cells [1] = assay: Cell cycle / apoptosis-inducing activity by flow cytometry (FACScan); assay type: cell-based, human
Method: The activity of test compounds in cell cycle (apoptosis-inducing activity) was analyzed with a flow cytometer (FACScan). […] The cells attached to the plates are then harvested together with the cells suspended in the medium, centrifuged, and pelleted, followed by removal of supernatants. The collected cells were washed twice with PBS, then fixed with 70% ethanol for 30 minutes or more at 4° C., then washed with PBS once more, suspended in PBS supplemented with RNaseA (final concentration: 50 μg/mL; Qiagen), and incubated for 20 minutes at 37° C. Centrifugation was performed, and the supernatant was removed, after which the nuclei were stained using a solution of propidium iodide ([…]). Filtration was then performed using a nylon mesh having a pore size of 50 μm, and a DNA histogram was analyzed with a FACScan flow cytometer ([…]). The cellular fractions of subG1 phase, G0/G1 phase, S phase, and G2/M phase were determined by calculation using macCycle (Phoenix Flow Systems).

DLD-1 cells [2] = assay: Cell growth inhibition (Cell Counting Kit 8, Wst-8), 96 h exposure; assay type: cell-based; settings: Homo sapiens, DLD-1 colon cancer cells
Method: (§1) The inhibitory efficacy of bis(arylmethylidene)-acetones on the development and growth of malignant tumor cells was examined. Curcumin and bis(arylmethylidene)-acetone compounds were dissolved in DMSO to obtain 50 mM compound solutions for storage. Sixteen human cancer cell lines (HCT116, DLD-1, SW620. LK87, PC3, MCF7, PK9, HuCCT-1, SH10TC, GCIY, G361, 8505c, HepG2, A431, ACHN, OVK18) were obtained from the Medical Cellular Resources Center of the Institute of Development, Aging, and Cancer at Tohoku University, Japan. These cells were cultured at 37° C. under 5% CO2 conditions using as a culture medium RPMI1640 (Sigma Aldrich) supplemented with 10% fetal bovine serum and kanamycin (Wako Pure Chemical Industries: final concentration, […]).
(§2) Three human colon-cancer cell lines (DLD-1, HCT116, SW620) were used in screening for cell growth inhibitory efficacy. The test compounds (bis(arylmethylidene)-acetones) were added to the culture media at the target concentrations, and exposure to the compounds was then continued for 96 hours in order to investigate not only acute cell damages but also effects on the cells, involving intracellular metabolic responses and others. The cell growth inhibitory efficacy was then evaluated with Cell Counting Kit 8 (Wst-8 Test, Dojindo Laboratories, Japan). In this analysis method, tetrazolium salt Wst-8 is degraded by reduced form nicotinamide adenine dinucleotide (nicotinamide adenine dinucleotide H; NADH). The activity of NADH is maintained only inside viable cells, and Wst-8 becomes colored upon degradation. The optical absorbance at 450 nm is measured, whereby the number of viable cells can be indirectly estimated.
(§3) Each cell line was placed on a 96-well microtiter plate at a cell density of 2500 to 5000 cells/100 μL/well in accordance with the growth rate of the cell line. After cell cultivation for 24 hours, […] medium containing each compound was added. The final concentration of each test compound is 0, 0.1, 0.25, 0.5, 1, 2.5, 5, 10, 25, 50, and 100 μM (11 levels). The maximum final concentration of DMSO used as a solvent was 1%. After culturing for 96 hours, the medium was aspirated away, followed by washing with PBS. Next, 100 μL of a medium containing a solution of Cell Counting Kit 8 at 1/10 (v/v) was added. Culturing was then continued for one hour. Thereafter, each optical absorbance at 450 nm (620 nm background) was measured with an MPR-A4i microplate reader (Tosoh, Japan). A curve of the inhibition of cell growth was constructed using the measured optical absorbances.

HCT116 cells = assay: as above; assay type: cell-based; settings: Homo sapiens, HCT-116, HCT116 colon cancer cells
Method: as §1, §2, §3

SW620 cells = assay: as above; assay type: cell-based; settings: Homo sapiens, SW-620, SW620 colon cancer cells
Method: as §1, §2, §3

colon-cancer cells = assay: Growth inhibition compared with anti-cancer agents 5-FU, CPT11, CDDP (FIG. 6); assay type: cell-based, human
Method: as §1, §3
Stored solutions of three anti-cancer agents: 5-FU, CDDP, and CPT11, prepared beforehand (1 mM), were suitably diluted prior to use, and also added to culture media.

β-catenin [3] = assay: Western blot of β-catenin degrading activity; assay type: cell-based, human
Method: Western-blot analysis was used to investigate effects on the expression of oncogene products, ErbB2, c-Myc, and Cyclin D1, whose activity is enhanced in a variety of cancer cells, and to investigate the activity of degrading β-catenin, which plays an important role in the initial stages of carcinogenesis to the formation and development of tumors.
(§4) Western-blot analysis was performed in the following manner:
(§5) After HCT116 cells were treated with each test compound, plate-adhered cells were recovered along with cells suspended in supernatants, centrifuged, and pelleted. The cells were then lysed with a lysis solution (40 mM Tris-HCl, 1% Triton X-100, 2 mM MgCl2) supplemented with 200-μM phenylmethanesulfonyl fluoride (PMSF), 500-μM benzamidine, and 1-μg/mL leupeptin. After the mixture was allowed to stand on ice for 30 minutes, it was centrifuged for 10 minutes at 4° C. and 10000×g, and supernatants were recovered. To the resultant supernatant was added equimolarly 2× sample buffer (0.1 M Tris-HCl (pH 6.8), 4% SDS, 20% glycerol, and 12% β-mercaptoethanol), and the mixture was shaken for 3 minutes at 4° C., then heated to 95° C. for 4 minutes, and then stored at −20° C. until use. The cell lysates were phoresed on 8% SDS-PAGE, transferred to a Hybond-P membrane (Amersham Biosciences), and made to react with various monoclonal antibodies described below.
(§6) Monoclonal antibodies: anti-actin antibody (A2066, Sigma Aldrich), anti-β-catenin antibody (6101 53, BD-transduction Laboratories), anti-p53 antibody (FL393: sc-6243HRP), anti-cyclin D1 antibody (M-20: sc-718), anti-c-Myc antibody (9E10: sc-40), anti-k-Ras-2B antibody (C-19: sc-521), and anti-c-ErbB2 antibody (A0485, DAKO Cytomation).

[4] = system: melanoma and breast cancer cells; settings: Non-Patent Document 2; cited from earlier work
[5] = system: A431, ACHN, and HepG2 cells; assay: Growth inhibition compared with conventional anti-cancer agents (FIG. 6); assay type: cell-based, human
Method: as §1
as §3, with “After culturing for 96 hours, the medium was aspirated away, followed by washing with PBS. Next, 100 μL of a medium containing a solution of Cell Counting Kit 8 at 1/10 (v/v) was added. Culturing was then continued for one hour.” left out, “absorbances. […]” for “absorbances.”

[6] = system: cell lines derived from stomach, lung, breast, ovarian, prostate, pancreatic, bile duct, thyroid cancer and melanoma; assay: Growth inhibition compared with 5-FU, CPT11, CDDP in cell lines of other cancers (FIG. 6); assay type: cell-based, human; settings: cell lines from a variety of other cancers
Method: as §1
as §3, with “After culturing for 96 hours, the medium was aspirated away, followed by washing with PBS. Next, 100 μL of a medium containing a solution of Cell Counting Kit 8 at 1/10 (v/v) was added. Culturing was then continued for one hour.” left out, “absorbances. […]” for “absorbances.”

p53 = assay: Western blot of p53 gene product expression; assay type: cell-based, human; settings: FIG. 11
Method: as §4, §5, §6
Curcumin is known to have activity in degrading p53 gene products. Degradation, genetic expression reduction, instability, or other deficiencies of the tumor suppressor gene p53 gene products, result in disadvantageous conditions as concerns cell malignancy and tendency to become cancerous.

C57BL/6J mice = assay: In vivo toxicity, mixed feed in high-fat diet; parameters: species or system mouse; settings: oral, 0.1% (w/w) in high-fat diet HFD35, 5 mg/day, more than 120 days
Method: The synthetic compounds of the present invention are derived from curcumin, which is originally a food item. […] As a further test for in vivo toxicity, inbred C57BL/6J mice received daily an oral intake of 5 g of mixed feed (test compound dose: 5 mg/day) wherein each test compound was admixed at 0.1% (weight/weight) with a high-fat diet (HFD35, CLEA Japan).

[7] = system: primary cultured hepatic cells (hNHeps); assay: Toxicity test on normal cells; assay type: cell-based; settings: FIG. 13
Apc580D mice = assay: Survival in familial adenomatous polyposis mouse model; assay type: in vivo
Text: Familial adenomatous polyposis (FAP) is the most appropriate model for considering the multistage process of carcinogenesis in colon cancer. The APC gene is a causative gene in this illness. This gene is a tumor suppressor gene and is linked to the degradation of the β-catenin gene product. The FAP mouse model Aoc580D (Apc580D/+mice, wherein a mutation was introduced into the mouse Apc gene by homologous genetic recombination) is heterozygous for a genetic mutation in which codon 580 of the APC gene is a stop codon (i.e., the Apc gene product is truncated at codon 580). These mice present hundreds of polyps in the gastrointestinal tract in the same manner as human FAP. […] Reference: Shibata H. et al., Science, 278, pp. 120-123 “Rapid colorectal adenoma formation initiated by conditional targeting of the Apc gene,” 1997.
Analysis was performed on therapeutic models (in which administration was initiated around the age of 8 weeks, when polyposis had already been observed) and prophylactic models (in which administration was initiated around the age of 4 weeks, when polyposis had not been observed) of carcinogenesis in the colon. Apc580D mice (2 animals) given daily an oral intake of HFD35 alone at a dose of 5 g were used as a control.

colon cancer cells = settings: Non-Patent Document 1; cited from earlier work
[8] = cited from earlier work
β-catenin [9] = settings: Non-Patent Document 1; cited from earlier work

IC50 (DLD-1 cells [2]) | IC50 (HCT116 cells) | IC50 (SW620 cells) | SMILES | growth inhibitory activity relative to 5-FU, CPT11 and CDDP (colon-cancer cells) | concentration at which β-catenin degrading activity is displayed (β-catenin [3]; FIG. 9) | effect relative to conventional anti-cancer agents [5] | β-catenin-degrading activity compared with BDMPP (β-catenin [3]; FIG. 9) | anti-cancer activity relative to 5-FU, CPT11, and CDDP [6] | transient drop in expression of p53 6 to 12 hours after administration (p53) | further results
2000 nM | 2500 nM | 3500 nM | COc1ccc(C=CC(=O)C=Cc2ccc(OC)c(OC)c2)cc1OC [GO-035, 1,5-Bis(3,4-dimethoxyphenyl)-penta-1,4-dien-3-one, reference compound] | much stronger | 5.0 µM | – | – | – | – | concentration arresting the cell cycle at the G2/M phase (DLD-1 cells [1]; DLD-1 cells, flow cytometry): 5 µM; concentration at which β-catenin degrading activity is displayed (β-catenin [3]; FIG. 9, listed as BDMPP): 5 µM; efficacy relative to curcumin [4]: 1.3 to 2.1 times
250 nM | 250 nM | 200 nM | COc1cc(/C=C/C(=O)/C=C/c2cc(OC)c(OC)c(OC)c2)cc(OC)c1OC [GO-Y016, (1E,4E)-1,5-bis-(3,4,5-trimethoxyphenyl)penta-1,4-dien-3-one] | much stronger | – | do not exert biological effects surpassing conventional anti-cancer agents | not | strong anti-cancer activity | – | –
8000 nM | 8000 nM | 10000 nM | COc1cc(/C=C/C(=O)CC(=O)/C=C/c2ccc(O)c(OC)c2)ccc1O [curcumin, (1E,6E)-1,7-bis(4-hydroxy-3-methoxyphenyl)-1,6-heptadiene-3,5-dione, reference compound] | – | 20.0 µM | – | – | – | transient drop | sub-G1 fraction (apoptosis-induced cell death) (DLD-1 cells [1]; curcumin (20 μM in method)): not substantially observed; concentration inhibiting the growth of colon cancer cells (colon cancer cells): 20 µM; water-solubility [8]: poor; concentration degrading β-catenin (β-catenin [9]): 15 µM

SMILES | IC50 (DLD-1 cells [2]) | IC50 (HCT116 cells) | IC50 (SW620 cells) | growth inhibitory activity relative to 5-FU, CPT11 and CDDP (colon-cancer cells) | concentration at which β-catenin degrading activity is displayed (β-catenin [3]; FIG. 9) | effect relative to conventional anti-cancer agents [5] | β-catenin-degrading activity compared with BDMPP (β-catenin [3]; FIG. 9) | anti-cancer activity relative to 5-FU, CPT11, and CDDP [6] | transient drop in expression of p53 6 to 12 hours after administration (p53) | further results
COCOc1c(OC)cc(/C=C/C(=O)/C=C/c2cc(OC)c(OCOC)c(OC)c2)cc1OC [GO-Y031, (1E,4E)-1,5-bis-(3,5-dimethoxy-4-methoxymethoxyphenyl)penta-1,4-dien-3-one] | 250 nM | 250 nM | 500 nM | much stronger | 1 µM | do not exert biological effects surpassing conventional anti-cancer agents | equal to or greater than that of BDMPP | strong anti-cancer activity | not seen | expression of p53 after 30 hours (p53): enhanced expression of p53; bodily abnormalities including weight loss (C57BL/6J mice): No bodily abnormalities, including weight loss, were observed; cytotoxicity to normal cells [7]: non-cytotoxic; growth inhibition on normal cells [7]: no growth inhibition was observed; average survival, anti-carcinogenically prophylactic model (still alive) (Apc580D mice; oral 5 mg/day in HFD35, started around 4 weeks of age): ≥ 110.0 days; survival time, therapeutic model (Apc580D mice; oral 5 mg/day in HFD35, started around 8 weeks of age, average where several mice): 148.0 days
